# Data taken from US6737383B1, “Herbicidal oxadiazolidines” (priority 1999, dated 2004).
# Assays:
# [1] = tested on: bedstraw; assay: Test B pre/postemergence bedstraw; format: in vivo, Galium aparine; conditions: Preemergence
# Method in brief: (§1)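 Test chemicals in a non-phytotoxic solvent mixture with surfactant were sprayed preemergence onto planted seeds and postemergence onto plants 2 to 18 cm tall (1- to 4-leaf stage). After twelve to sixteen days in a greenhouse, injury was visually rated against untreated controls from 0 (no effect) to 10 (complete control).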
# [2] = tested on: blackgrass; assay: Test B pre/postemergence blackgrass; format: in vivo, Alopecurus myosuroides
# Method in brief: as §1
# [3] = tested on: surinam grass; assay: Test B pre/postemergence surinam grass; format: in vivo, Brachiaria decumbens
# Method in brief: as §1
# [4] = tested on: cocklebur; assay: Test B pre/postemergence cocklebur; format: in vivo, Xanthium strumarium
# Method in brief: as §1
# [5] = tested on: corn; assay: Test B pre/postemergence corn; format: in vivo, Zea mays
# Method in brief: as §1
# [6] = tested on: crabgrass; assay: Test B pre/postemergence crabgrass; format: in vivo, Digitaria sanguinalis
# Method in brief: as §1
# [7] = tested on: giant foxtail; assay: Test B pre/postemergence giant foxtail; format: in vivo, Setaria faberii
# Method in brief: as §1
# [8] = tested on: morningglory; assay: Test B pre/postemergence morningglory; format: in vivo, Ipomoea hederacea
# Method in brief: as §1
# [9] = tested on: pigweed; assay: Test B pre/postemergence pigweed; format: in vivo, Amaranthus retroflexus
# Method in brief: as §1
# [10] = tested on: rape; assay: Test B pre/postemergence rape; format: in vivo, Brassica napus
# Method in brief: as §1
# [11] = tested on: soybean; assay: Test B pre/postemergence soybean; format: in vivo, Glycine max
# Method in brief: as §1
# [12] = tested on: sugar beet; assay: Test B pre/postemergence sugar beet; format: in vivo, Beta vulgaris
# Method in brief: as §1
# [13] = tested on: velvetleaf; assay: Test B pre/postemergence velvetleaf; format: in vivo, Abutilon theophrasti
# Method in brief: as §1
# [14] = tested on: wheat; assay: Test B pre/postemergence wheat; format: in vivo, Triticum aestivum
# Method in brief: as §1
# [15] = tested on: wild oat; assay: Test B pre/postemergence wild oat; format: in vivo, Avena fatua
# Method in brief: as §1
# [16] = tested on: purple nutsedge; assay: Test B pre/postemergence purple nutsedge; format: in vivo, Cyperus rotundus
# Method in brief: as §1
# [17] = tested on: rice; assay: Test B flood test rice; format: in vivo, Oryza sativa
# Method in brief: (§2)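 Each value is a visual injury score relative to controls, with 10 meaning complete control and 0 no effect. Evaluation took place twelve to sixteen days after the 2-leaf-stage plants were treated and kept in the greenhouse.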
# [18] = tested on: smallflower flatsedge; assay: Test B flood test smallflower flatsedge; format: in vivo, Cyperus difformis
# Method in brief: as §2
# [19] = tested on: duck salad; assay: Test B flood test duck salad; format: in vivo, Heteranthera limosa
# Method in brief: as §2
# [20] = tested on: bamyardgrass; assay: Test B flood test barnyardgrass; format: in vivo, Echinochloa crus-galli
# Method in brief: as §2
# [21] = Postemergence, Rate 62 g/ha, scale of 0 to 10, 0 is no effect, 10 is complete control
# [22] = Postemergence, Rate 125 g/ha, scale of 0 to 10 where 0 is no effect and 10 is complete control
# [23] = Postemergence, Rate 250 g/ha, scale of 0 to 10, 0 is no effect, 10 is complete control
# [24] = Postemergence, Rate 500 g/ha, scale of 0 to 10 where 0 is no effect and 10 is complete control
# [25] = Preemergence, Rate 62 g/ha, scale 0 to 10 (0 no effect, 10 complete control)
# [26] = Preemergence, Rate 125 g/ha, scale of 0 to 10 where 0 is no effect and 10 is complete control
# [27] = Preemergence, Rate 500 g/ha, scale of 0 to 10 where 0 is no effect and 10 is complete control
# [28] = Rate 62 g/ha, flood test species, Pre-emergence, visual evaluation after twelve to sixteen days
# [29] = Rate 125 g/ha, under heading Pre-emergence, flood test species, visual evaluation after twelve to sixteen days
# [30] = Rate 250 g/ha, Pre-emergence (flood test species), scale 0 to 10, 0 is no effect, 10 is complete control
# [31] = Rate 500 g/ha, Pre-emergence section of Table B, 0 to 10 scale (0 no effect, 10 complete control)
smiles,measurement,setting,value
CC(C)N(C(=O)n1oc(=O)n(CC[N+](=O)[O-])c1=O)c1ccc(F)cc1F [Compound 591],Bedstraw plant response rating,"[1]; Rate 62 g/ha, scale 0 to 10 (0 no effect, 10 complete control)",0
same,Bedstraw plant response rating,"[1]; Rate 125 g/ha, scale of 0 to 10 where 0 is no effect and 10 is complete control",0
same,Blackgrass plant response rating,[2]; [21],0
same,"Plant response rating, Blackgrass",[2]; [22],0
same,Blackgrass plant response rating,[2]; [23],0
same,"Plant response rating, Blackgrass",[2]; [24],0
same,Blackgrass plant response rating,[2]; [25],0
same,Blackgrass plant response rating,[2]; [26],0
same,Blackgrass plant response rating (0 to 10 scale),"[2]; Preemergence, Rate 250 g/ha",0
same,Blackgrass plant response rating,[2]; [27],0
same,B. signalgrass plant response rating,[3]; [21],0
same,"Plant response rating, B. signalgrass",[3]; [22],0
same,B. signalgrass plant response rating,[3]; [23],0
same,"Plant response rating, B. signalgrass",[3]; [24],0
same,B. signalgrass plant response rating,[3]; [25],0
same,B. signalgrass plant response rating,[3]; [26],0
same,"B. signalgrass plant response rating (0 to 10 scale, 0 is no effect, 10 is complete control)","[3]; Preemergence, Rate 250 g/ha",0
same,B. signalgrass plant response rating,[3]; [27],0
same,Cocklebur plant response rating,[4]; [21],0
same,"Plant response rating, Cocklebur",[4]; [22],0
same,Cocklebur plant response rating,[4]; [23],0
same,"Plant response rating, Cocklebur",[4]; [24],0
same,Cocklebur plant response rating,[4]; [25],0
same,Cocklebur plant response rating,[4]; [26],0
same,Cocklebur plant response rating (0 to 10 scale),"[4]; Preemergence, Rate 250 g/ha",0
same,"Plant response rating, Cocklebur",[4]; [27],0
same,Corn plant response rating,[5]; [21],0
same,"Plant response rating, Corn",[5]; [22],0
same,Corn plant response rating,[5]; [23],0
same,"Plant response rating, Corn",[5]; [24],0
same,Corn plant response rating,[5]; [25],0
same,Corn plant response rating,[5]; [26],0
same,Corn plant response rating (0 to 10 scale),"[5]; Preemergence, Rate 250 g/ha",0
same,"Plant response rating, Corn",[5]; [27],0
same,Crabgrass plant response rating,[6]; [21],0
same,"Plant response rating, Crabgrass",[6]; [22],0
same,Crabgrass plant response rating,[6]; [23],0
same,"Plant response rating, Crabgrass",[6]; [24],0
same,Crabgrass plant response rating,[6]; [25],0
same,Crabgrass plant response rating,[6]; [26],0
same,"Plant response rating, Crabgrass",[6]; [27],0
same,Giant foxtail plant response rating,[7]; [21],0
same,"Plant response rating, Giant foxtail",[7]; [22],0
same,Giant foxtail plant response rating,[7]; [23],0
same,"Plant response rating, Giant foxtail",[7]; [24],0
same,Giant foxtail plant response rating,[7]; [25],0
same,Giant foxtail plant response rating,[7]; [26],0
same,"Plant response rating, Giant foxtail",[7]; [27],0
same,Morningglory plant response rating,[8]; [21],0
same,"Plant response rating, Morningglory",[8]; [22],0
same,Morningglory plant response rating,[8]; [23],2
same,"Plant response rating, Morningglory",[8]; [24],3
same,Morningglory plant response rating,[8]; [25],0
same,Morningglory plant response rating,[8]; [26],0
same,"Plant response rating, Morningglory",[8]; [27],0
same,"Plant response rating, Redroot pigweed",[9]; [22],0
same,Redroot pigweed plant response rating,[9]; [23],0
same,"Plant response rating, Redroot pigweed",[9]; [24],0
same,Redroot pigweed plant response rating,[9]; [25],0
same,Redroot pigweed plant response rating,[9]; [26],0
same,"Plant response rating, Redroot pigweed",[9]; [27],0
same,Rape plant response rating,[10]; [21],0
same,"Plant response rating, Rape",[10]; [22],0
same,Rape plant response rating,[10]; [23],0
same,"Plant response rating, Rape",[10]; [24],0
same,Rape plant response rating,[10]; [25],0
same,Rape plant response rating,[10]; [26],0
same,"Plant response rating, Rape",[10]; [27],0
same,"Plant response rating, Soybean",[11]; [22],1
same,Soybean plant response rating,[11]; [23],2
same,"Plant response rating, Soybean",[11]; [24],2
same,Soybean plant response rating,[11]; [25],0
same,Soybean plant response rating,[11]; [26],0
same,"Plant response rating, Soybean",[11]; [27],0
same,"Plant response rating, Sugarbeets",[12]; [22],0
same,Sugarbeets plant response rating,[12]; [23],0
same,"Plant response rating, Sugarbeets",[12]; [24],0
same,Sugarbeets plant response rating,[12]; [25],0
same,Sugarbeets plant response rating,[12]; [26],0
same,"Plant response rating, Sugarbeets",[12]; [27],0
same,"Plant response rating, Velvetleaf",[13]; [22],0
same,Velvetleaf plant response rating,[13]; [23],0
same,"Plant response rating, Velvetleaf",[13]; [24],0
same,Velvetleaf plant response rating,[13]; [25],0
same,Velvetleaf plant response rating,[13]; [26],0
same,"Plant response rating, Velvetleaf",[13]; [27],0
same,"Plant response rating, Wheat",[14]; [22],0
same,Wheat plant response rating,[14]; [23],0
same,"Plant response rating, Wheat",[14]; [24],0
same,Wheat plant response rating,[14]; [25],0
same,Wheat plant response rating,[14]; [26],0
same,"Plant response rating, Wheat",[14]; [27],0
same,"Plant response rating, Wild oats",[15]; [22],0
same,Wild oats plant response rating,[15]; [23],0
same,"Plant response rating, Wild oats",[15]; [24],0
same,Wild oats plant response rating,[15]; [25],0
same,Wild oats plant response rating,[15]; [26],0
same,"Plant response rating, Wild oats",[15]; [27],0
same,Nutsedge plant response rating,[16]; [21],0
same,"Plant response rating, Nutsedge",[16]; [22],0
same,Nutsedge plant response rating,[16]; [23],0
same,"Plant response rating, Nutsedge",[16]; [24],0
same,Nutsedge plant response rating,[16]; [25],0
same,Nutsedge plant response rating,[16]; [26],0
same,"Plant response rating, Nutsedge",[16]; [27],0
same,"Plant response rating, Rice (0 to 10 scale, 0 is no effect, 10 is complete control)",[17]; [28],0
same,"Rice plant response rating (0 to 10 scale, 0 is no effect, 10 is complete control)",[17]; [29],0
same,Rice plant response rating,[17]; [30],0
same,Rice plant response rating,[17]; [31],0
same,"Plant response rating, S. Flatsedge (0 to 10 scale, 0 is no effect, 10 is complete control)",[18]; [28],0
same,"S. Flatsedge plant response rating (0 to 10 scale, 0 is no effect, 10 is complete control)",[18]; [29],0
same,S. Flatsedge plant response rating,[18]; [30],0
same,S. Flatsedge plant response rating,[18]; [31],0
same,"Plant response rating, Ducksalad (0 to 10 scale, 0 is no effect, 10 is complete control)",[19]; [28],0
same,"Ducksalad plant response rating (0 to 10 scale, 0 is no effect, 10 is complete control)",[19]; [29],0
same,Ducksalad plant response rating,[19]; [30],0
same,Ducksalad plant response rating,[19]; [31],0
same,"Plant response rating, Barnyardgrass (0 to 10 scale, 0 is no effect, 10 is complete control)",[20]; [28],0
same,"Barnyardgrass plant response rating (0 to 10 scale, 0 is no effect, 10 is complete control)",[20]; [29],0
same,Barnyardgrass plant response rating,[20]; [30],0
same,Barnyardgrass plant response rating,[20]; [31],0
